Data: patent US9957273B2, “5-substituted 7- [4-(2-pyridyl)phenylmethylamino] -3-isopropylpyrazolo4,3-D]pyrimidine derivatives, use thereof as medicaments, and pharmaceutical compositions” (USTAV EXPERIMENTALNI BOTANIKY AV CR, V.V.I., priority 2015, dated 2018)
pEC50: −log10 of the molar value.

Assays:
[1] = test system: PANC-1 (pancreatic carcinoma); assay: MTT cytotoxicity assay, solid cancer cell line PANC-1; format: cell-based; conditions: Homo sapiens, PANC-1, 72 h, three days
Experimental: (§1) The compounds were assayed using the following cell lines: G361 (malignant melanoma), MCF7 (breast adenocarcinoma), PLC/PRF/5 (liver hepatoma), PANC-1 (pancreatic carcinoma) and HCT116 (colon carcinoma). All cell lines were grown in DMEM medium supplemented with fetal bovine serum and L-glutamine and maintained at 37° C. in a humidified atmosphere with 5% CO2. For cytotoxicity assays, 4000-10000 cells were seeded into each well of a 96 well plate, allowed to stabilize for at least 16 h and then tested compounds were added at various concentrations ranging from 100 to 0.01 μM in triplicates. After three days, MTT solution (5 mg/ml; Sigma, St. Louis, USA) was added to cells and medium was replaced with DMSO after five hours. The absorbance was measured at 620 nm by employing a microplate reader. MTT assays were repeated 3 times for each drug application and untreated cells were used as reference.

[2] = test system: HUVECs (human umbilical vein endothelial cells); assay: HUVEC proliferation assay (crystal violet); format: cell-based; conditions: Homo sapiens, HUVEC, 72 h, read-out: Inhibition of proliferation (EC50)
Experimental: (§2) To verify that novel compounds have anti-vascularisation properties, we analyzed their influence on the proliferation and migration of HUVECs. HUVECs (human umbilical vein endothelial cells) were purchased from Promocell (Heidelberg, Germany) and cultured in endothelial cell growth medium (ECGM, Promocell, Heidelberg, Germany) containing 10% FCS (Biochrom, Berlin, Germany). Experiments were performed using cells at passage 3.
For proliferation assay, 1.5×10^3 HUVECs were cultured for 24 h. Afterwards, cells were either left untreated or treated with novel compounds for 72 h. Proliferation assay was performed using crystal violet as described previously (Koltermann et al. 2007, Cell Mol. Life Sci. 64:1715-1722).

[3] = test system: PLC/PRF/5 (liver hepatoma); assay: MTT cytotoxicity assay, solid cancer cell line PLC/PRF/5; format: cell-based; conditions: Homo sapiens, PLC-PRF-5, 72 h, three days
Experimental: as §1

[4] = test system: G361 (malignant melanoma); assay: MTT cytotoxicity assay, solid cancer cell line G361; format: cell-based; conditions: Homo sapiens, G-361, 72 h, three days
Experimental: as §1

[5] = test system: MV4;11 (acute myelocytic leukemia); assay: MTT cytotoxicity assay, leukemic cell line MV4;11; format: cell-based; conditions: Homo sapiens, MV4-11, 72 h, three days
Text: (§3) Cytotoxicity of the compounds is the major property determining their antileukemic efficacy in vivo. One of the parameters used, as the basis for cytotoxicity assays, is the metabolic activity of viable cells. For example, a microtiter assay, which uses (3-(4,5-dimethylthiazol-2-yl)-2,5-diphenyltetrazolium bromide (MTT), is widely used to quantitate cell proliferation and cytotoxicity. This assay is widely used in drug screening programs and in chemosensitivity testing. Because only metabolically active living cells reduce MTT to correspond purple formazan dye, these assays detect viable cells exclusively. The quantity of reduced MTT corresponds to the number of vital cells in the culture.
as §1, with “following leukemic” for “following”, “K562 (human chronic myelogenous leukaemia), HL60 (human promyelocytic leukaemia), CEM (human lymphoblastoid leukaemia), THP1 (human monocytic cell line), MV4; 11 (acute myelocytic leukemia).” for “G361 (malignant melanoma), MCF7 (breast adenocarcinoma), PLC/PRF/5 (liver hepatoma), PANC-1 (pancreatic carcinoma) and HCT116 (colon carcinoma).”, “RPMI” for “DMEM”, “2000-5000” for “4000-10000”, “of” for “of a”, “8” for “16”

[6] = molecular target: T1, CDK5/p35 (Homo sapiens, UniProt Q00535); assay: CDK5/p35 kinase inhibition (33P-ATP, histone H1); format: biochemical; conditions: 0.15 μM ATP
T1 construct: purchased ProQinase GmbH
T1 sequence (Q00535 whole entry): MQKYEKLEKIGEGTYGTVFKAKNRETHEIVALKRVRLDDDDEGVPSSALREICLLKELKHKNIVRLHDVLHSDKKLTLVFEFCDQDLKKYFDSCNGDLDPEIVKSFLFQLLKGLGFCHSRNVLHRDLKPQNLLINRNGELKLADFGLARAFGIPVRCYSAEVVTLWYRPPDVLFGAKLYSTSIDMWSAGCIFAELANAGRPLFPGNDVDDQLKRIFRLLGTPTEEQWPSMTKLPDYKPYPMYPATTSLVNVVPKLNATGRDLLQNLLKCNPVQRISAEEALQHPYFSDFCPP
T1 sequence (Q15078 whole entry partner): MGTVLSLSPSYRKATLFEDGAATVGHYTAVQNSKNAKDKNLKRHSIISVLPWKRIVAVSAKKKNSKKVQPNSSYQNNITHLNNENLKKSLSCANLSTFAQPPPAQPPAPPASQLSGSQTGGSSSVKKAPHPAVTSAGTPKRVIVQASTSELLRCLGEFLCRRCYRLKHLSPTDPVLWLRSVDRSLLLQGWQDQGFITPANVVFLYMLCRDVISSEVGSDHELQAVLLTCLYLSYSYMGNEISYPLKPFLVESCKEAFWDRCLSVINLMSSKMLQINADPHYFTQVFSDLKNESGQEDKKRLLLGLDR
Experimental: CDK2/Cyclin E kinase was produced in Sf9 insect cells via baculoviral infection and purified on a NiNTA column (Qiagen). […] CDK5/p35 was purchased from ProQinase GmbH.
(§4) The reactions were stopped by adding 5 μL of 3% aq H3PO4. Aliquots were spotted onto P-81 phosphocellulose (Whatman), washed 3× with 0.5% aq H3PO4 and finally air-dried.

[7] = test system: MCF7 (breast adenocarcinoma); assay: MTT cytotoxicity assay, solid cancer cell line MCF7; format: cell-based; conditions: Homo sapiens, MCF7, 72 h, three days
Experimental: as §1

[8] = test system: CEM (human lymphoblastoid leukaemia); assay: MTT cytotoxicity assay, leukemic cell line CEM; format: cell-based; conditions: Homo sapiens, 72 h, three days
Text: as §3
as §1, with “following leukemic” for “following”, “K562 (human chronic myelogenous leukaemia), HL60 (human promyelocytic leukaemia), CEM (human lymphoblastoid leukaemia), THP1 (human monocytic cell line), MV4; 11 (acute myelocytic leukemia).” for “G361 (malignant melanoma), MCF7 (breast adenocarcinoma), PLC/PRF/5 (liver hepatoma), PANC-1 (pancreatic carcinoma) and HCT116 (colon carcinoma).”, “RPMI” for “DMEM”, “2000-5000” for “4000-10000”, “of” for “of a”, “8” for “16”

[9] = test system: K562 (human chronic myelogenous leukaemia); assay: MTT cytotoxicity assay, leukemic cell line K562; format: cell-based; conditions: Homo sapiens, K562, 72 h, three days
Text: as §3
as §1, with “following leukemic” for “following”, “K562 (human chronic myelogenous leukaemia), HL60 (human promyelocytic leukaemia), CEM (human lymphoblastoid leukaemia), THP1 (human monocytic cell line), MV4; 11 (acute myelocytic leukemia).” for “G361 (malignant melanoma), MCF7 (breast adenocarcinoma), PLC/PRF/5 (liver hepatoma), PANC-1 (pancreatic carcinoma) and HCT116 (colon carcinoma).”, “RPMI” for “DMEM”, “2000-5000” for “4000-10000”, “of” for “of a”, “8” for “16”

[10] = test system: HCT116 (colon carcinoma); assay: MTT cytotoxicity assay, solid cancer cell line HCT116; format: cell-based; conditions: Homo sapiens, HCT-116, 72 h, three days
Experimental: as §1

[11] = test system: HL60 (human promyelocytic leukaemia); assay: MTT cytotoxicity assay, leukemic cell line HL60; format: cell-based; conditions: Homo sapiens, HL-60, 72 h, three days
Text: as §3
as §1, with “following leukemic” for “following”, “K562 (human chronic myelogenous leukaemia), HL60 (human promyelocytic leukaemia), CEM (human lymphoblastoid leukaemia), THP1 (human monocytic cell line), MV4; 11 (acute myelocytic leukemia).” for “G361 (malignant melanoma), MCF7 (breast adenocarcinoma), PLC/PRF/5 (liver hepatoma), PANC-1 (pancreatic carcinoma) and HCT116 (colon carcinoma).”, “RPMI” for “DMEM”, “2000-5000” for “4000-10000”, “of” for “of a”, “8” for “16”

[12] = test system: THP1 (human monocytic cell line); assay: MTT cytotoxicity assay, leukemic cell line THP1; format: cell-based; conditions: Homo sapiens, THP-1, 72 h, three days
Text: as §3
as §1, with “following leukemic” for “following”, “K562 (human chronic myelogenous leukaemia), HL60 (human promyelocytic leukaemia), CEM (human lymphoblastoid leukaemia), THP1 (human monocytic cell line), MV4; 11 (acute myelocytic leukemia).” for “G361 (malignant melanoma), MCF7 (breast adenocarcinoma), PLC/PRF/5 (liver hepatoma), PANC-1 (pancreatic carcinoma) and HCT116 (colon carcinoma).”, “RPMI” for “DMEM”, “2000-5000” for “4000-10000”, “of” for “of a”, “8” for “16”

[13] = test system: HUVECs (human umbilical vein endothelial cells); assay: HUVEC migration (scratch) assay; format: cell-based; conditions: 16 h, read-out: Inhibition of migration (EC50)
Experimental: as §2
For migration assay, confluent HUVECs were scratched with a pipette tip and immediately treated with either starvation medium M199 (serum-free, negative control; PAN Biotech) or full endothelial cell growth medium (positive control). After 16 h, cells were fixed with 3% formaldehyde and images were taken using the TILLvisON system (Lochham, Germany) connected to an Axiovert 200 microscope (Zeiss, Germany). Evaluation of pictures was made by S.CO LifeScience (Garching, Germany). Migration was quantified as the ratio of the area covered with cells and the area of the cell free wound.

[14] = test system: breast carcinoma cell line MCF7; assay: Cell cycle profile by BrdU/propidium iodide flow cytometry; format: cell-based; conditions: asynchronously growing MCF7, 24 h, FIG. 1
Experimental: Sub-confluent cells were treated with test compounds at different concentrations for 24 h. The cultures were pulse-labeled with […] 5-bromo-20-deoxyuridine (BrdU) for 30 min at 37° C. prior to harvesting. The cells were then washed in PBS, fixed with 70% ethanol, and denatured in 2 M HCl. Following neutralization, the cells were stained with anti-BrdU fluorescein-labeled antibodies, washed, stained with propidium iodide and analyzed by flow cytometry using a 488 nm laser

[15] = molecular target: T2, CDK2/Cyclin E (Homo sapiens, UniProt P24941); assay: CDK2/Cyclin E kinase inhibition (33P-ATP, histone H1); format: biochemical; conditions: 15 μM ATP
T2 construct: made in house; host or cells: Sf9 insect cells (baculovirus)
Experimental: CDK2/Cyclin E kinase was produced in Sf9 insect cells via baculoviral infection and purified on a NiNTA column (Qiagen). The kinase reactions were assayed with 1 mg/mL histone H1 in the presence of 15 μM ATP, 0.05 μCi [γ-^33P]ATP and of the test compound in a final volume of 10 μL, all in a reaction buffer (60 mM HEPES-NaOH, pH 7.5, 3 mM MgCl2, 3 mM MnCl2, 3 μM Na-orthovanadate, 1.2 mM DTT, 2.5 μg/50 μl PEG20.000). CDK5/p35 was purchased from ProQinase GmbH. The kinase reactions were assayed with 1 mg/mL histone H1 in the presence of 0.15 μM ATP, 0.05 μCi [γ-^33P]ATP and of the test compound in a final volume of 10 μL, all in a reaction buffer (60 mM HEPES-NaOH, pH 7.5, 3 mM MgCl2, 3 mM MnCl2, 3 μM Na-orthovanadate, 1.2 mM DTT, 2.5 μg/50 μl PEG20.000).
as §4

SMILES | IC50 [1] [µM] | pEC50 [2] | IC50 [3] [µM] | IC50 [4] [µM] | IC50 [5] [µM] | IC50 [6] [µM] | IC50 [7] [µM] | IC50 [8] [µM] | IC50 [9] [µM] | IC50 [10] [µM] | IC50 [11] [µM] | IC50 [12] [µM] | pEC50 [13] | effect on the cell cycle of MCF7 [14] | IC50 [15] [µM]
CC(C)c1n[nH]c2c(NCc3ccc(-c4ccccn4)cc3)nc(S(C)(=O)=O)nc12 [Compound 7] | 1.56 | 6.19 | 0.21 | 0.43 | 1.69 | 0.165 | 0.46 | 0.93 | 0.64 | 1.97 | 0.52 | 1.64 | 6.26 |  | 
CC(C)c1[nH]nc2c(NCc3ccc(-c4ccccn4)cc3)nc(N3CCNCC3)nc12 [Compound 13] | 0.06 | 8.05 | 0.05 | 0.02 | 0.04 | 0.119 | 0.02 | 0.01 | 0.02 | 0.03 | 0.02 | 0.03 | 7.59 |  | 
CC(C)c1[nH]nc2c(NCc3ccc(-c4ccccn4)cc3)nc(N3CCSCC3)nc12 [Compound 15] | 0.34 | 6.82 | 0.2 | 0.42 | 0.87 | 0.114 | 0.53 | 0.23 | 0.59 | 0.69 | 0.6 | 0.31 |  | potently arrested cells in S, G2 and M phases | 
CC(C)c1[nH]nc2c(NCc3ccc(-c4ccccn4)cc3)nc(NC[C@@H](C)O)nc12 [Compound 27] | 0.07 | 7.48 | 0.04 | 0.08 | 0.06 |  | 0.03 | 0.01 | 0.06 | 0.1 | 0.02 | 0.03 | 7.46 |  | 0.021
